# Data reported in publication PMC2697958 (Molecular microbiology, 2009).
# Target: Aurora kinase-1 (TbAUK1) (Trypanosoma brucei, UniProt Q384J7)
# Assay: in vitro kinase assay of immunoprecipitated kinase
# Type: biochemical
structure (smiles),measurement,value
CCS(=O)(=O)Nc1ccc2c(c1)/C(=C(/Nc1ccc(CN3CCCCC3)cc1)c1ccccc1)C(=O)N2 [Hesperadin],IC50,40 nM
